Measured values published in paper PMC7093416, “Selective USP7 inhibition elicits cancer cell killing through a p53-dependent mechanism” (Scientific Reports, 2020).
Values joined by “and” are separate entries in the source; they are usually repeats but may differ in a detail not shown here. Equal entries are not always repeated.

System: panel of 484 cancer cell lines
Test: PRISM cancer cell line profiling, 5 days
Assay type: cell-based
Set-up: Viability: scale not given here; AUC: unit not given beside the values
Procedure: Cancer cell line profiling was performed using the Broad’s PRISM platform. Cell treatment and data analysis were performed as described in Yu et al[42]. Raw Luminex signal was converted to AUC values for each cell line as described. The resulting AUC profile for each compound was modeled against DepMap using the limma package in R[71]. Because hotspot mutation analysis was performed against DepMap, TP53 annotations in Fig. 6c,d are directly from DepMap.

[1] = 8MGBA_CENTRAL_NERVOUS_SYSTEM, pert_dose 6.10E-04
[2] = 253J_URINARY_TRACT, pert_dose 6.10E-04
[3] = 786O_KIDNEY, pert_dose 6.10E-04
[4] = 8305C_THYROID, pert_dose 6.10E-04
[5] = 8505C_THYROID, pert_dose 6.10E-04
[6] = A172_CENTRAL_NERVOUS_SYSTEM, pert_dose 6.10E-04
[7] = ACHN_KIDNEY, pert_dose 6.10E-04
[8] = AN3CA_ENDOMETRIUM, pert_dose 6.10E-04
[9] = ASPC1_PANCREAS, pert_dose 6.10E-04
[10] = BC3C_URINARY_TRACT, pert_dose 6.10E-04
[11] = BECKER_CENTRAL_NERVOUS_SYSTEM, pert_dose 6.10E-04
[12] = BFTC905_URINARY_TRACT, pert_dose 6.10E-04
[13] = BFTC909_KIDNEY, pert_dose 6.10E-04
[14] = BICR6_UPPER_AERODIGESTIVE_TRACT, pert_dose 6.10E-04
[15] = BICR16_UPPER_AERODIGESTIVE_TRACT, pert_dose 6.10E-04

COc1ccc(C2=N[C@@H](c3ccc(Cl)cc3)[C@@H](c3ccc(Cl)cc3)N2C(=O)N2CCNC(=O)C2)c(OC(C)C)c1 [Nutlin-3A]
AUC (8MGBA_CENTRAL_NERVOUS_SYSTEM): 1.128
MFI 8MGBA_CENTRAL_NERVOUS_SYSTEM [1]: 9934 and 14986 and 8645 and 10478 and 11554
Viability [1]: 0.9428
AUC (22RV1_PROSTATE): 1.096
AUC (42MGBA_CENTRAL_NERVOUS_SYSTEM): 1.109
MFI 42MGBA_CENTRAL_NERVOUS_SYSTEM (42MGBA_CENTRAL_NERVOUS_SYSTEM, pert_dose 6.10E-04): 4116 and 5824 and 3462 and 5974.5 and 4899
AUC (253JBV_URINARY_TRACT): 0.9024
AUC (253J_URINARY_TRACT): 0.9134
MFI 253J_URINARY_TRACT [2]: 13400 and 14082 and 16791.5 and 16677.5 and 16246
Viability [2]: 0.9155
AUC (639V_URINARY_TRACT): 1.087
AUC (647V_URINARY_TRACT): 1.106
MFI 647V_URINARY_TRACT (647V_URINARY_TRACT, pert_dose 6.10E-04): 28744 and 33002 and 29259 and 22669.5 and 34567
AUC (769P_KIDNEY): 0.9079
AUC (786O_KIDNEY): 1.095
MFI 786O_KIDNEY [3]: 5233.5 and 8009.5 and 6751 and 6471 and 5976.5
Viability [3]: 0.8974
AUC (5637_URINARY_TRACT): 1.131
MFI 5637_URINARY_TRACT (5637_URINARY_TRACT, pert_dose 6.10E-04): 5164 and 5198 and 5608 and 5118 and 4250
AUC (8305C_THYROID): 1.086
MFI 8305C_THYROID [4]: 12807.5 and 11646.5 and 14452 and 19016 and 21699
Viability [4]: 0.9334
AUC (8505C_THYROID): 1.09
MFI 8505C_THYROID [5]: 8489.5 and 8271 and 7453 and 9513 and 9868
Viability [5]: 1.233
AUC (2313287_STOMACH): 1.164
AUC (A101D_SKIN): 0.8317
AUC (A172_CENTRAL_NERVOUS_SYSTEM): 0.8527
MFI A172_CENTRAL_NERVOUS_SYSTEM [6]: 9637 and 10480 and 8488 and 7646 and 8288
Viability [6]: 1.171
AUC (A204_SOFT_TISSUE): 0.961
MFI A204_SOFT_TISSUE (A204_SOFT_TISSUE, pert_dose 6.10E-04): 193.5 and 222 and 295.5 and 243.5 and 208
AUC (A375_SKIN): 0.8657
MFI A375_SKIN (A375_SKIN, pert_dose 6.10E-04): 6835.5 and 8654.5 and 5268 and 5613 and 4840.5
Viability (A375_SKIN, pert_dose 6.10E-04): 1.106
AUC (A549_LUNG): 0.859
MFI A549_LUNG (A549_LUNG, pert_dose 6.10E-04): 9119 and 8938 and 13071.5 and 13916 and 10911
Viability (A549_LUNG, pert_dose 6.10E-04): 1.178
AUC (A673_BONE): 1.118
AUC (A704_KIDNEY): 0.9164
AUC (A2058_SKIN): 1.115
MFI A2058_SKIN (A2058_SKIN, pert_dose 6.10E-04): 18135 and 19395 and 19549.5 and 22935 and 20108
Viability (A2058_SKIN, pert_dose 6.10E-04): 1.165
AUC (A2780_OVARY): 0.8149
MFI A2780_OVARY (A2780_OVARY, pert_dose 6.10E-04): 18911 and 15634 and 16575 and 14170.5 and 15163.5
AUC (ABC1_LUNG): 1.193
AUC (ACCMESO1_PLEURA): 1.068
AUC (ACHN_KIDNEY): 0.8632
MFI ACHN_KIDNEY [7]: 12459.5 and 11580 and 11974.5 and 13015.5 and 8174
Viability [7]: 1.255
AUC (AGS_STOMACH): 1.099
MFI AGS_STOMACH (AGS_STOMACH, pert_dose 6.10E-04): 33881 and 40936.5 and 34938 and 35658 and 38326
AUC (AN3CA_ENDOMETRIUM): 1.0825
MFI AN3CA_ENDOMETRIUM [8]: 6120 and 10572 and 7019 and 6758 and 9328
Viability [8]: 0.9599
AUC (ASPC1_PANCREAS): 1.065
MFI ASPC1_PANCREAS [9]: 18934.5 and 23594 and 20951.5 and 18601 and 21238
Viability [9]: 1.138
AUC (BC3C_URINARY_TRACT): 1.147
MFI BC3C_URINARY_TRACT [10]: 12791.5 and 13915 and 8459 and 10458.5 and 8646
Viability [10]: 1.328
AUC (BCPAP_THYROID): 1.122
AUC (BECKER_CENTRAL_NERVOUS_SYSTEM): 1.117
MFI BECKER_CENTRAL_NERVOUS_SYSTEM [11]: 24187 and 19210 and 17010 and 22220 and 21019.5
Viability [11]: 1.525
AUC (BEN_LUNG): 1.146
MFI BEN_LUNG (BEN_LUNG, pert_dose 6.10E-04): 7960 and 8798 and 6007 and 9178 and 9972.5
Viability (BEN_LUNG, pert_dose 6.10E-04): 1.0724
AUC (BFTC905_URINARY_TRACT): 1.2069
MFI BFTC905_URINARY_TRACT [12]: 6936 and 8493 and 9950.5 and 8885 and 6674.5
Viability [12]: 0.7676
AUC (BFTC909_KIDNEY): 1.167
MFI BFTC909_KIDNEY [13]: 11810 and 18038 and 14602 and 12914 and 16966
Viability [13]: 1.223
AUC (BHT101_THYROID): 1.133
AUC (BICR6_UPPER_AERODIGESTIVE_TRACT): 1.14
MFI BICR6_UPPER_AERODIGESTIVE_TRACT [14]: 13342 and 11342 and 11621 and 10074.5 and 14217
Viability [14]: 1.497
AUC (BICR16_UPPER_AERODIGESTIVE_TRACT): 1.202
MFI BICR16_UPPER_AERODIGESTIVE_TRACT [15]: 5443.5 and 5515 and 3801.5 and 7225 and 7467
Viability [15]: 1.266
AUC (BICR31_UPPER_AERODIGESTIVE_TRACT): 1.128
MFI BICR31_UPPER_AERODIGESTIVE_TRACT (BICR31_UPPER_AERODIGESTIVE_TRACT, pert_dose 6.10E-04): 17717 and 15090 and 19092 and 15830 and 14976
AUC (BICR56_UPPER_AERODIGESTIVE_TRACT): 1.158
AUC (BT474_BREAST): 1.172
AUC (BT549_BREAST): 1.133
AUC (BXPC3_PANCREAS): 1.49
AUC (CADOES1_BONE): 1.1262
Viability (CADOES1_BONE, pert_dose 6.10E-04): 1.326
AUC (CAKI1_KIDNEY): 0.8906
MFI CAKI1_KIDNEY (CAKI1_KIDNEY, pert_dose 6.10E-04): 21451 and 18142 and 20425 and 19719.5 and 25262.5
